Test results reported in PMC5515969, “Effects of 31 FDA approved small-molecule kinase inhibitors on isolated rat liver mitochondria” (Archives of Toxicology, 2016).
Structures can show the parent of a compound that is named as a salt. Where two headings read alike, the source gives them in different places. Marks after values point to notes of the source that are not given here.

What was measured:
[1] = system: isolated rat liver mitochondria; test: Mitochondrial ROS production (CM-H2DCFDA); conditions: DMSO treated samples set as 1
RCC II = molecular target: T1, RCC II (Rattus norvegicus, UniProt P21913+Q641Z9+Q6PCT8+Q920L2); test: RCC II activity in submitochondrial particles; format: biochemical; design: key: activity relative to DMSO-treated controls (control set as 1 = 100%); conditions: relative to DMSO treated samples
T1 construct: Submitochondrial particles were prepared by subjecting the intact mitochondria to three successive freeze–thaw cycles; from tissue; host or cells: rat liver mitochondria, used as submitochondrial particles
Method: (§1) KIs were incubated with submitochondrial particles (1 mg/ml) for 15 min and then RCC I–V activities measured. […] The activities of DMSO-treated samples (controls) were set as 1. […] The difference between the activity from rotenone-containing buffer and rotenone-absent buffer was considered as RCC I activity. […] For measuring RCC I/V and II activity, the changes in absorbance at 340 and 600 nm, respectively, were determined every 1 min for 6 min. For measuring RCC III and RCC IV, the changes in absorbance at 550 nm were measured every 10 s for 2 min.

[2] = design: method as in product labeling; conditions: ref product labeling, cited from earlier work; for Labeling for cardiotoxicity: BBW: black box warning, W&P: Warnings and Precautions
[3] = system: isolated rat liver mitochondria; test: Mitochondrial oxygen consumption (glutamate/malate or succinate driven, state 4 and state 3); format: biochemical; conditions: DMSO treated samples set as 1; on State 3 respiration driven by succinate at 10XCmax: key: 0 indicates that the drug had no effects (negative); on State 3 respiration driven by succinate at 1XCmax: key: 0 indicates that the drug had no effects (negative)
Method: Rats were anesthetized by an intraperitoneal injection of Nembutal and the liver perfused with PBS to remove the blood. The liver was then cut into small pieces and homogenized using a Dounce type homogenizer in the ice-cold isolation buffer (IB) containing 200 mM sucrose, 10 mM Tris-MOPS, 1 mM EGTA (pH 7.4). The sample was then centrifuged at 600g for 10 min. The supernatant was further centrifuged at 7500g for 10 min, and the pellets was washed once with the IB and centrifuged again at 7500g for 10 min to collect mitochondria. […] Before drug treatment, the protein concentration was adjusted to 1 mg/ml using appropriate buffer. […] Briefly, mitochondrial and cytosolic fractions from four different preparations using four rats were diluted using the Laemmli protein loading buffer and subject to SDS-PAGE with 4–20% gradient gels. The proteins were blotted to PVDF membranes and detected using antibodies against GAPDH, ATP5A, UQCRC2, SDHB, and NDUFB8.
The aliquoted stock solutions were kept for less than one month and each tube was used only once. The KIs were added to the mitochondria at 1:1000 dilutions. […] The Cmax data were from clinical trials which used FDA recommend dosages, route of administration, and duration. […] The final concentration of DMSO for drug treatment was always 0.1%, and control treatments were 0.1% DMSO.
Briefly, mitochondria were incubated with the KIs for 5 min, and then split evenly and loaded to the sample tubes of two Oxytherm systems (Hansatech Instruments Ltd), with one system used for measuring glutamate/malate driven respiration and the other succinate-driven respiration, both of which were defined as state 4 respiration. After 3 min, ADP was added to measure the maximal oxygen consumption rate, which was defined as state 3 respiration. […] The oxygen consumption rate of DMSO-treated samples (controls) was set as 1.

[4] = cited from earlier work; for DILI potential (based on labeling): 1 = DILI positive, 0 = negative
RCC V = RCC V activity in submitochondrial particles; format: biochemical, rat; conditions: relative to DMSO treated samples; on RCC V at 5XCmax: key: 0 indicates that the drug had no effects (negative)
Method: as §1

[5] = system: isolated rat liver mitochondria; test: Mitochondrial swelling (absorbance at 535 nm); format: biochemical; conditions: difference in signal between KI and DMSO treated samples at the end of experiments; on Swelling 5XCmax: key: 0 indicates that the drug had no effects (negative)
[6] = cited from earlier work
[7] = system: isolated rat liver mitochondria; test: Mitochondrial inner membrane potential (MMP), Rhodamine 123; format: biochemical; conditions: difference in signal between KI and DMSO treated samples at the end of experiments
From the text: Fig. 3 KI effects on mitochondrial inner membrane potential (MMP). […] In a, c, data are means and standard derivations from three separate experiments. *p < 0.05 as compared to DMSO-treated samples at the end of experiments. In b, data are means of two independent experiments

[8] = system: isolated rat liver mitochondria; conditions: positive control alamethicin treated samples
RCC I = RCC I activity in submitochondrial particles; format: biochemical, rat; design: key to RCC I at 10XCmax / RCC I at 100XCmax / RCC I at 50XCmax / RCC I at 30XCmax / RCC I at 20XCmax: activity relative to DMSO-treated controls (control set as 1 = 100%); conditions: 10XCmax; relative to DMSO treated samples
Method: as §1

[9] = read-out: Cmax at µM, therapeutic maximal blood concentration, ref product labeling
[10] = therapeutic maximal blood concentration, ref product labeling

T1 sequence (Q920L2 35-656): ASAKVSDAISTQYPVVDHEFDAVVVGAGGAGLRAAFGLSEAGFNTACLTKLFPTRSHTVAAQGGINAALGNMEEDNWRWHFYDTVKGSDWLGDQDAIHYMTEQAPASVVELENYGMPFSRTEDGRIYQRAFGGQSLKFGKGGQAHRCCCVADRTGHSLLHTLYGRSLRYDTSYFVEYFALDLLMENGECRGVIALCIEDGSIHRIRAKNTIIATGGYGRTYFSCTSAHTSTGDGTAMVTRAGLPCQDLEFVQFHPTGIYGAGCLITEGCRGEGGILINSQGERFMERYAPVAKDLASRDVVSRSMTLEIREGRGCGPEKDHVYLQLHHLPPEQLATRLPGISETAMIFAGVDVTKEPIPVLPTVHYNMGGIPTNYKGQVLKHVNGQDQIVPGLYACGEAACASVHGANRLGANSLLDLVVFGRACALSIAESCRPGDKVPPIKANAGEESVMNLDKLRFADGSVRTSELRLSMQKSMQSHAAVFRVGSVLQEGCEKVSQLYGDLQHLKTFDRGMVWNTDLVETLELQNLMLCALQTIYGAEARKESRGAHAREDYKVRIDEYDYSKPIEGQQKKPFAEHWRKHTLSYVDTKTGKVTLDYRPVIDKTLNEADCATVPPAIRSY
T1 sequence (P21913 31-282): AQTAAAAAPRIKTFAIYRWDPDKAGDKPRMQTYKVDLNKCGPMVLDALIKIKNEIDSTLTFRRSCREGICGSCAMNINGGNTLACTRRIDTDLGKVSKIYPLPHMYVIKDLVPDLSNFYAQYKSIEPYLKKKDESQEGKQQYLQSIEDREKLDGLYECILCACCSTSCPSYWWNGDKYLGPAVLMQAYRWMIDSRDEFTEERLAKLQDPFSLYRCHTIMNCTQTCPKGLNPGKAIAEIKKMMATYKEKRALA
T1 sequence (Q641Z9 1-169): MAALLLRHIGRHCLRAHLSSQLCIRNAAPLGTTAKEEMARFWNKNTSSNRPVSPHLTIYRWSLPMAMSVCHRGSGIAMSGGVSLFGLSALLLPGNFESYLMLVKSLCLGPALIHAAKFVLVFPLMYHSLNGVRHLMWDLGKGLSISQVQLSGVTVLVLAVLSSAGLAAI
T1 sequence (Q6PCT8 57-159): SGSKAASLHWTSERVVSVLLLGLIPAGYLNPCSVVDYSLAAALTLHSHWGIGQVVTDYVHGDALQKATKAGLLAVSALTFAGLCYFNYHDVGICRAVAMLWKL

| Structure (SMILES) | ROS measured by CM-H2DCFDA at 1XCmax [1] | ROS measured by CM-H2DCFDA at 2.5XCmax [1] | ROS measured by CM-H2DCFDA at 5XCmax [1] | ROS measured by CM-H2DCFDA at 10XCmax [1] | RCC II at 1.0XCmax (RCC II) | RCC II at 2.5XCmax (RCC II) | RCC II at 5XCmax (RCC II) | RCC II at 10XCmax (RCC II) | Labeling for cardiotoxicity [2] | Potential for cardiotoxicity (based on labeling) [2] | State 3 respiration driven by succinate at 1XCmax ([3]; 1XCmax) | State 4 respiration driven by succinate at 1XCmax ([3]; 1XCmax) | State 3 respiration driven by succinate at 2.5XCmax ([3]; 2.5XCmax) | State 4 respiration driven by succinate at 2.5XCmax ([3]; 2.5XCmax) | State 3 respiration driven by succinate at 5XCmax ([3]; 5XCmax) | State 4 respiration driven by succinate at 5XCmax ([3]; 5XCmax) | State 3 respiration driven by succinate at 10XCmax ([3]; 10XCmax) | State 4 respiration driven by succinate at 10XCmax ([3]; 10XCmax) | Swelling 1XCmax [5] | Swelling 2.5XCmax [5] | further results |
| --- | --- | --- | --- | --- | --- | --- | --- | --- | --- | --- | --- | --- | --- | --- | --- | --- | --- | --- | --- | --- | --- |
| CNC(=O)c1cc(Oc2ccc(NC(=O)Nc3ccc(Cl)c(C(F)(F)F)c3)cc2)ccn1 [sorafenib tosylate] | 0 | 0 | 0 | 0 | 0 | 0 | 0 | 0 | W&P: Cardiac Ischemia and/or Infarction; QT Interval Prolongation | 1 | 0 | 1.50±0.21 | 0.62±0.05 | 1.43±0.06 | 0.40±0.01 | 0 | 0 | 3.34±0.45 | 0 | 0.29±0.02 | State 4 respiration driven by glutamate/malate at 1XCmax ([3]; 1XCmax): 2.55±0.27; State 3 respiration driven by glutamate/malate at 2.5XCmax ([3]; 2.5XCmax): 1.57±0.06; State 4 respiration driven by glutamate/malate at 2.5XCmax ([3]; 2.5XCmax): 4.92±0.09; State 4 respiration driven by glutamate/malate at 5XCmax ([3]; 5XCmax): 3.69±0.12; State 4 respiration driven by glutamate/malate at 10XCmax ([3]; 10XCmax): 5.00±1.92; DILI potential (based on labeling) ([4]; ref product labeling): 1; Labeling for DILI ([4]; BBW: black box warning, W&P: Warnings and Precautions, ref product labeling): W&P: fatal DILI; RCC V at 10XCmax (RCC V; 10XCmax): 65.55±6.34; Cmax [6, 9]: 4.3 µM; MMP measured by Rhodamine 123 at 1XCmax [7]: 4037±631*; MMP measured by Rhodamine 123 at 2.5XCmax [7]: 4075±739*; MMP measured by Rhodamine 123 at 5XCmax [7]: 3781±744*; MMP measured by Rhodamine 123 at 10XCmax [7]: 3380±680*; Cytochrome c release 1XCmax [8]: 0; Cytochrome c release 2.5XCmax [8]: 0; Cytochrome c release 5XCmax [8]: 12.12±5.17 percentage of the positive control group; RCC I at 10XCmax (RCC I): 0 |
| CS(=O)(=O)CCNCc1ccc(-c2ccc3ncnc(Nc4ccc(OCc5cccc(F)c5)c(Cl)c4)c3c2)o1 [lapatinib ditosylate monohydrate] | 0 | 0 | 0 | 0 | 0 | 0 | 0 | 0 | W&P: Decreased Left Ventricular Ejection Fraction; QT Prolongation | 1 | 0 | 0 | 0 | 0 | 0 | 0 | 0 | 0 | 0 | 0 | DILI potential (based on labeling) ([4]; ref product labeling): 1; Labeling for DILI ([4]; in vivo): BBW: fatal DILI; RCC V at 5XCmax (RCC V): 0; Swelling 5XCmax [5]: 0; Swelling 10XCmax [5]: 0; Cmax [6, 10]: 2430 ng/mL; MMP measured by Rhodamine 123 at 1XCmax [7]: 0; MMP measured by Rhodamine 123 at 2.5XCmax [7]: 0; MMP measured by Rhodamine 123 at 5XCmax [7]: 0; MMP measured by Rhodamine 123 at 10XCmax [7]: 0; Cytochrome c release 1XCmax [8]: 0; Cytochrome c release 2.5XCmax [8]: 0; Cytochrome c release 5XCmax [8]: 0; Cytochrome c release 10XCmax [8]: 7.91±2.25 percentage of the positive control group; RCC I at 10XCmax (RCC I): 0 |
| Cc1cn(-c2cc(NC(=O)c3ccc(C)c(Nc4nccc(-c5cccnc5)n4)c3)cc(C(F)(F)F)c2)cn1 [Nilotinib] | 0 | 0 | 0 | 0 | 0 | 0 | 0 | 0 | BBW: QT Interval Prolongation | 1 | 0 | 0 | 0 | 0 | 0 | 0 | 0 | 0 | 0 | 0 | RCC V at 5XCmax (RCC V): 0; Swelling 5XCmax [5]: 0; Swelling 10XCmax [5]: 0; Cmax ([6]; human therapeutic Cmax at FDA recommended dosages, ref product labeling and drug approval packages at the official FDA website): 4.27 µM; Cmax [6, 9]: 4.27 µM; Cmax [6, 10]: 2260 ng/mL; MMP measured by Rhodamine 123 at 1XCmax [7]: 0; MMP measured by Rhodamine 123 at 2.5XCmax [7]: 0; MMP measured by Rhodamine 123 at 5XCmax [7]: 0; MMP measured by Rhodamine 123 at 10XCmax [7]: 0; Cytochrome c release 1XCmax [8]: 0; Cytochrome c release 2.5XCmax [8]: 0; Cytochrome c release 5XCmax [8]: 0; Cytochrome c release 10XCmax [8]: 0; RCC I at 10XCmax (RCC I): 0 |
